One series concerns Lepomis macrochirus. Conditions: acute; duration: 96 hours.
A further series relates to Rattus norvegicus. The settings on record: for LD50: acute, oral, mortality.
The next series concerns Apis mellifera. The settings on record: acute, mortality.
Another series has as its system Coturnix japonica. Conditions: reproduction developmental.
The next series has as its system Colinus virginianus. Conditions: acute; oral; mortality.
In the next series the test system is Anas platyrhynchos. The settings on record: short-term; oral; feed; mortality.
Another series has as its system Tagia sp. The settings on record: for LC50: acute; for NOEC: chronic/long-term, duration: 8 weeks.
The test system of a further series is Hypoaspis aculeifer. Nature of the series: LR50; higher = less toxic. Conditions: acute.
The subject of another series is Folsomia candida. Conditions: chronic/long-term; duration: 28 days.
The mark [1] stands for this setting: reproduction developmental, reproduction.

Bounds are passed on as bounds.

`COC(=O)[N-]S(=O)(=O)c1ccc(N)cc1.[Na+]` [Asulam-sodium]: the LC50 with Lepomis macrochirus was greater than 91.3 µg/mL; with Anas platyrhynchos it was greater than 100000 mg/kg; in the series on Tagia sp. (duration: 14 days), 1000 mg/kg. For the same compound, the LD50 with Rattus norvegicus was greater than 4560 mg/kg-day; with Apis mellifera (dermal) it was greater than 100 µg/piece; with Apis mellifera (oral, unspecified) it was greater than 124 µg/piece; in the series on Colinus virginianus, greater than 1830 mg/kg-day. The NOAEL with Rattus norvegicus (setting [1]) worked out at 46 mg/kg-day; in the series with Coturnix japonica, 65 mg/kg-day. In the series on Rattus norvegicus (setting [1]), the NOEL was found to be 46 mg/kg-day. Further, the NOEC in the series with Tagia sp. was determined as 181 mg/kg. In the series with Hypoaspis aculeifer, this compound gave an LR50 greater than 4370 mg/kg.

On to `Nc1ccc(S(N)(=O)=O)cc1` [Sulfanilamide], for which the LD50 with Rattus norvegicus (F) is greater than 2000 mg/kg-day. Moreover, the NOAEC in the series with Folsomia candida amounted to 50 mg/kg. Further, in the series on Tagia sp., the LC50 was greater than 1000 mg/kg and the NOEC turned out to be 3.75 mg/kg.

Broadly, the NOAEL is the highest dose or exposure tested at which no adverse effect was seen.
